# Target: [35S]-TBPS binding, rat brain cortical membranes
# Experiment: Steroid inhibition of [35S]-TBPS binding
# Details: 3 nM [35S]-TBPS, in the presence of 5 mM GABA
# Outline: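 In the presence of […], compounds (DMSO 0.5% final) competed with 3 nM [35S]-TBPS for Sprague-Dawley rat cortical membranes, pH 7.4 phosphate buffer, 90 min, room temperature. Filtration and scintillation counting; specific binding defined by […]; IC50 and maximal inhibition fitted per experiment, averaged as mean ± SEM.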
row,Compound,IC50 [nM]
1,"COC[C@@]1(O)CC[C@H]2[C@@H](CC[C@@H]3[C@@H]2CC[C@]2(C)[C@@H]([C@H](C)Cn4nnc(C)n4)CC[C@@H]32)C1 [Example 54, (3R,5S,8R,9R,10S,13S,14S,17R)-3-(methoxymethyl)-13-methyl-17-((S)-1-(5-methyl-2H-tetrazol-2-yl)propan-2-yl)hexadecahydro-1H-cyclopenta[a]phenanthren-3-ol]",100 to 1000
2,"CC[C@@]1(O)CC[C@H]2[C@H](CC[C@@H]3[C@@H]2CC[C@]2(C)[C@@H]([C@H](C)Cn4nccc4C#N)CC[C@@H]32)C1 [Example 274, 1-((S)-2-((3R,5R,8R,9R,10S,13S,14S,17R)-3-ethyl-3-hydroxy-13-methylhexadecahydro-1H-cyclopenta[a]phenanthren-17-yl)propyl)-1H-pyrazole-5-carbonitrile]",100 to 1000
3,"COC[C@@]1(O)CC[C@H]2[C@@H](CC[C@@H]3[C@@H]2CC[C@]2(C)[C@@H]([C@H](C)Cn4nnnc4C)CC[C@@H]32)C1 [Example 56, (3R,5S,8R,9R,10S,13S,14S,17R)-3-(methoxymethyl)-13-methyl-17-((S)-1-(5-methyl-1H-tetrazol-1-yl)propan-2-yl)hexadecahydro-1H-cyclopenta[a]phenanthren-3-ol]",100 to 1000
4,C[C@H](N[C@H](C)[C@H]1CC[C@H]2[C@@H]3CC[C@@H]4C[C@](C)(O)CC[C@@H]4[C@H]3CC[C@]12C)c1ccccc1 [Example 209],100 to 1000
5,CCOC[C@@]1(O)CC[C@H]2[C@H](CC[C@@H]3[C@@H]2CC[C@]2(C)[C@@H]([C@@H](C)Nc4cccc(N5CCCC5=O)c4C)CC[C@@H]32)C1 [Example 259],< 100
6,"COC[C@@]1(O)CC[C@H]2[C@@H](CC[C@@H]3[C@@H]2CC[C@]2(C)[C@@H](CCn4nccn4)CC[C@@H]32)C1 [Example 297, (3R,5S,8R,9R,10S,13R,14S,17R)-17-(2-(2H-1,2,3-triazol-2-yl)ethyl)-3-(methoxymethyl)-13-methylhexadecahydro-1H-cyclopenta[a]phenanthren-3-ol]",< 100
7,"C[C@@H](Nc1ccc(C#N)cc1)[C@H]1CC[C@H]2[C@@H]3CC[C@@H]4C[C@](C)(O)CC[C@@H]4[C@H]3CC[C@]12C [Example 33, 4-(((R)-1-((3R,5R,8R,9R,10S,13S,14S,17S)-3-hydroxy-3,13-dimethylhexadecahydro-1H-cyclopenta[a]phenanthren-17-yl)ethyl)amino)benzonitrile]",< 100
8,"C[C@@H]1CCCC(=O)N1C[C@H]1CC[C@H]2[C@@H]3CC[C@@H]4C[C@](C)(O)CC[C@@H]4[C@H]3CC[C@]12C [Example 7, (R)-1-(((3R,5R,8R,9R,10S,13S,14S,17S)-3-hydroxy-3,13-dimethylhexadecahydro-1H-cyclopenta[a]phenanthren-17-yl)methyl)-6-methylpiperidin-2-one]",1000 to 10000
9,CCOC[C@@]1(O)CC[C@@]2(C)[C@H](CC[C@H]3C4CC[C@H]([C@@H](C)Nc5ccc(-n6ccc(C#N)n6)cn5)[C@@]4(C)CC[C@@H]32)C1 (stereo partly drawn) [Example 502],100 to 1000
10,CCOC[C@@]1(O)CC[C@H]2[C@H](CC[C@@H]3[C@@H]2CC[C@]2(C)[C@@H]([C@@H](C)Cc4ccc(C)nc4C#N)CC[C@@H]32)C1 [Example 414],< 100
11,"C[C@@H]([C@H]1CC[C@H]2[C@@H]3CC[C@@H]4C[C@](C)(O)CC[C@@H]4[C@H]3CC[C@]12C)n1ncc(C#N)c1N [Example 155, 5-amino-1-((S)-1-((3R,5R,8R,9R,10S,13S,14S,17S)-3-hydroxy-3,13-dimethylhexadecahydro-1H-cyclopenta[a]phenanthren-17-yl)ethyl)-1H-pyrazole-4-carbonitrile]",1000 to 10000
12,"COC[C@@]1(O)CC[C@@]2(C)[C@H](CC[C@@H]3[C@@H]2[C@H](O)C[C@]2(C)[C@@H]([C@H](C)Cn4cc(C#N)cn4)CC[C@@H]32)C1 [Example 282, 1-((S)-2-((3R,5R,8S,9S,10S,11R,13S,14S,17R)-3,11-dihydroxy-3-(methoxymethyl)-10,13-dimethylhexadecahydro-1H-cyclopenta[a]phenanthren-17-yl)propyl)-1H-pyrazole-4-carbonitrile]",100 to 1000
13,"C[C@@H](Nc1ccccc1)[C@H]1CC[C@H]2[C@@H]3CC[C@@H]4C[C@](C)(O)CC[C@@H]4[C@H]3CC[C@]12C [Example 25, (3R,5R,8R,9R,10S,13S,14S,17S)-3,13-dimethyl-17-((R)-1-(phenylamino)ethyl)hexadecahydro-1H-cyclopenta[a]phenanthren-3-ol]",< 100
14,COC[C@@]1(O)CC[C@H]2[C@H](CC[C@@H]3[C@@H]2CC[C@]2(C)[C@@H]([C@@H](C)NS(=O)(=O)c4cccc(C#N)n4)CC[C@@H]32)C1 [Example 75],< 100
15,"CCOC[C@@]1(O)CC[C@H]2[C@H](CC[C@@H]3[C@@H]2CC[C@]2(C)[C@@H]([C@H](CC)Nc4ccc(C#N)nc4)CC[C@@H]32)C1 [Example 493, 5-(((S)-1-((3R,5R,8R,9R,10S,13S,14S,17S)-3-(ethoxymethyl)-3-hydroxy-13-methylhexadecahydro-1H-cyclopenta[a]phenanthren-17-yl)propyl)amino)picolinonitrile]",1000 to 10000
16,C[C@H](NC(=O)c1ccc(C#N)cn1)[C@H]1CC[C@H]2[C@@H]3CC[C@@H]4C[C@](C)(O)CC[C@@H]4[C@H]3CC[C@]12C [Example 121],1000 to 10000
17,"C[C@@]1(O)CC[C@H]2[C@H](CC[C@@H]3[C@@H]2CC[C@]2(C)[C@@H](CN4CC[C@H](c5ccccc5)C4=O)CC[C@@H]32)C1 [Example 12, (R)-1-(((3R,5R,8R,9R,10S,13S,14S,17S)-3-hydroxy-3,13-dimethylhexadecahydro-1H-cyclopenta[a]phenanthren-17-yl)methyl)-3-phenylpyrrolidin-2-one]",< 100
18,"CCOC[C@@]1(O)CC[C@H]2[C@H](CC[C@@H]3[C@@H]2CC[C@]2(C)[C@@H]([C@@H](C)Cn4nccn4)CC[C@@H]32)C1 [Example 266, (3R,5R,8R,9R,10S,13S,14S,17R)-17-((R)-1-(2H-1,2,3-triazol-2-yl)propan-2-yl)-3-(ethoxymethyl)-13-methylhexadecahydro-1H-cyclopenta[a]phenanthren-3-ol]",100 to 1000
19,Cc1cncc(C[C@@H](C)[C@H]2CC[C@H]3[C@@H]4CC[C@@H]5C[C@](C)(O)CC[C@@H]5[C@H]4CC[C@]23C)c1 [Example 434],100 to 1000
20,C[C@@H](NC(=O)c1ccccn1)[C@H]1CC[C@H]2[C@@H]3CC[C@@H]4C[C@](C)(O)CC[C@@H]4[C@H]3CC[C@]12C [Example 100],100 to 1000
21,"Cc1cc(C#N)ccc1N[C@H]([C@H]1CC[C@H]2[C@@H]3CC[C@@H]4C[C@](C)(O)CC[C@@H]4[C@H]3CC[C@]12C)C(F)(F)F [Example 490, 3-methyl-4-(((R)-2,2,2-trifluoro-1-((3R,5R,8R,9R,10S,13S,14S,17S)-3-hydroxy-3,13-dimethylhexadecahydro-1H-cyclopenta[a]phenanthren-17-yl)ethyl)amino)benzonitrile]",100 to 1000
